Laboratory results reported in the NIST ThermoML archive (doi:10.1016/j.tca.2009.03.004).
± gives the expanded uncertainty stated by the source.

What was measured:
[1] = DTA
[2] = Molar enthalpy of transition or fusion; settings: DSC

Compound | Triple point temperature ([1]; Crystal) | Triple point temperature ([1]; Nematic liquid crystal) | Molar enthalpy of transition or fusion ([2]; Crystal) | Molar enthalpy of transition or fusion ([2]; Nematic liquid crystal)
CCCCCCCCOc1ccc(C=Nc2ccc(OCC)cc2)cc1 [4-ethoxy-N-[[4-(octyloxy)phenyl]methylene]benzenamine] | 373.95 ± 0.5 K | 395.55 ± 0.5 K | 9.66 ± 0.263 kcal/mol | 0.268 ± 0.0311 kcal/mol
CCCCCCCCOc1ccc(C=Nc2ccc(OCCCC)cc2)cc1 [benzenamine, 4-butoxy-N-[[4-(octyloxy)phenyl]methylene]-] | 380.75 ± 0.5 K | 389.55 ± 0.5 K | 10.6 ± 0.287 kcal/mol | 0.43 ± 0.0359 kcal/mol
